{
  "source": "paper PMC6006164",
  "about": "“Natural cyclopeptide RA-V inhibits the NF-κB signaling pathway by targeting TAK1” (Cell Death & Disease, 2018)",
  "key": {"[1]": {"assay": "Toxicity assessment in xenograft-bearing mice", "assay_type": "in vivo, female athymic nude BALB/c mice", "description": "Fig. 8 Analysis of potential side effects for treatment of RA-V. a–b The change curves of body weights of BALB/c bearing HCT116 (a) or HepG2 (b) xenograft tumors (n = 8 or 7). c Representative hematoxylin–eosin staining of heart, kidney, spleen, lung, and liver from vehicle- and various concentrations of RA-V-treated group. d The evaluation of serum ALT, AST, and creatine kinase for vehicle- and various concentrations of the RA-V-treated group\nIn total, 2 × 10^6 HCT116 or 3 × 10^6 HepG2 cells were subcutaneously injected into the right dorsal flank of 6- to 8-week-old female athymic nude BALB/c mice. After tumor volumes reached 100 mm^3, the tumor-bearing mice were randomly divided into several groups. The mice bearing HCT116 (n = 8) or HepG2 xenograft tumors (n = 7) were received the intravenous injection of vehicle micelles or various concentrations of RA-V micelles every other day. 5-FU (10 mg/kg) group as positive control. Body weights and tumor volumes were recorded every other day. Tumor volumes were calculated using the following formula: tumor volume (mm^3) = 0.52 × length × width^2. At the end of the experiments, the mice were killed. Tumor xenografts of each mouse were removed and weighed. Part of each tumor tissue was stored at liquid nitrogen for quantitative RT-PCR analysis. Organs (heart, kidney, spleen, lung, and liver) from killed mice were also removed, fixed in the 4% formaldehyde solution for microscopic examination by hematoxylin–eosin staining. Serum alanine transaminase(ALT), aspartate transaminase(AST), and creatine kinase(CK) were determined using relevant kits (Nanjing Jiancheng) according to the manufacturer’s specific instructions."}, "IL-8 production": {"system": "IL-8 production", "assay": "TNF-α-induced IL-8 production, ELISA", "assay_type": "cell-based", "details": "HeLa; RA-V 12 h, 10 ng/mL TNF-α 2 h; ELISA of supernatant; dose-dependent", "experimental": "Fig. 1 RA-V inhibits TNF-α- and LPS-induced activation of NF-κB. a Chemical structure of RA-V. b RA-V inhibited the NF-κB signaling pathway in a dose-dependent manner. HEK293T or HeLa cells were transfected with the 5 × κB-luciferase and pTK-Renilla reporters. Twenty-four hours after transfection, the cells were incubated with various concentrations of RA-V for 6 h, and then treated with 10 ng/mL TNF-α for 2 h before the luciferase activity assay and MTT assay. c RA-V reduced TNF-α-induced expression of NF-κB target genes. HEK293T or HeLa cells were treated with various concentrations of RA-V for 24 h and stimulated with 10 ng/mL TNF-α for 2 h. The expression of the NF-κB target genes, IL-8, MCP-1, and E-selectin was measured by quantitative RT-PCR and normalized to GADPH expression. d RA-V inhibited TNF-α-induced p65 phosphorylation, IκBα phosphorylation and IκBα degradation. HEK293T or HeLa cells were incubated with various concentrations of RA-V for 24 h and treated with 10 ng/mL TNF-α for 10 min. The cell lysates were prepared and subjected to western blot analysis with the indicated antibodies. e RA-V inhibited TNF-α-induced IL-8 production. […] The expression of IL-6 was measured. h RA-V inhibited LPS-induced p65 phosphorylation, IκBα phosphorylation. […] The protein expression was measured. i RA-V inhibited LPS-induced IL-6 production. […] The expression of IL-6 was measured."}, "TAK1–TRAF6 interaction": {"biological_target": "T1, TAK1–TRAF6 interaction (Homo sapiens, UniProt O43318)", "T1 construct": "expressed in transfected cells; host or cells: HEK293T", "T1 sequence (O43318 1-579 isoform O43318-2)": "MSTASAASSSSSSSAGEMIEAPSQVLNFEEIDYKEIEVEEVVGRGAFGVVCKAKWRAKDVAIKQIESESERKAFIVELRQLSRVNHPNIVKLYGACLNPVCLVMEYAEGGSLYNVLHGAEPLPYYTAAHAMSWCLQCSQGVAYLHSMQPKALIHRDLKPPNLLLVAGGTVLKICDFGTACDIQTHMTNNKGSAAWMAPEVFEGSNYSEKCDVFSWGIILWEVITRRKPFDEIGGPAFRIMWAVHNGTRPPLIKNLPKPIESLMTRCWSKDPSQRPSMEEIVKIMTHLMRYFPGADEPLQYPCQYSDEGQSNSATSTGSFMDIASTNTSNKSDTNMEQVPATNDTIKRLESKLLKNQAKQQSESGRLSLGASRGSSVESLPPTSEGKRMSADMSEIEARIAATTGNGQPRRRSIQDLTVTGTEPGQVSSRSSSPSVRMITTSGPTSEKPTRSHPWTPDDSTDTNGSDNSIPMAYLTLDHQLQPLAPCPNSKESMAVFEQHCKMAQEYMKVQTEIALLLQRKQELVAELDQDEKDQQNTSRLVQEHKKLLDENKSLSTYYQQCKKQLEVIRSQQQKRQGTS", "assay": "Co-immunoprecipitation of TAK1 and TRAF6", "assay_type": "cell-based", "details": "HEK293T, Flag-TAK1 and HA-TRAF6; RA-V 800 nM 6 h", "experimental": "Fig. 4 RA-V blocks the interaction between TAK1 and TAB2. a RA-V blocked the exogenous TAK1–TAB2 interaction. HEK293T cells were transfected with Flag-TAK1 and HA-TAB2 for 24 h and then incubated with various concentrations of RA-V for 6 h. […] HEK293T cells were transfected with Flag-TAK1 and HA-TRAF6 or HA-TAB1 for 24 h and then incubated with RA-V (800 nM) for 6 h. The cell lysates were immunoprecipitated with HA antibody, and immunoblots were performed with the indicated antibodies. d RA-V blocked the endogenous TAK1–TAB2 interaction. HEK293T (left) or RAW264.7 (right) cells were incubated with 800 nM RA-V for 6 h and stimulated with 10 ng/mL TNF-α for 2 h or 1 μg/mL LPS for 3 h, respectively. The cell lysates were immunoprecipitated with TAK1 antibody or control IgG and then immunoblotted with the indicated antibodies. Each experiment was repeated at least three times\nThe cell lysates were prepared using radioimmunoprecipitation (RIPA) buffer containing 50 mM Tris-HCl pH 7.4, 150 mM NaCl, 1 mM ethylenediaminetetraacetic acid, 1% Triton X-100, 0.5% deoxycholate, and 0.1% sodium dodecyl sulfate, to which protease inhibitors (Roche) were added. The lysates were incubated with the indicated antibodies before adding 20 μL of Protein A/G agarose for 2 h. After four washes with the same buffer, the immunoprecipitates were boiled in 2 × SDS loading buffer."}},
  "data": [
    {"substance": "RA-V", "values": [
      {"measurement": "body weight", "setting": "[1]; HCT116 or HepG2 xenograft mice, measured every other day, vs control", "value": "no obvious changes"},
      {"measurement": "toxic pathological changes in heart, kidney, spleen, lung and liver", "setting": "[1]; hematoxylin–eosin staining, vs control", "value": "no obvious toxic pathological changes"},
      {"measurement": "levels of serum ALT, AST and creatine kinase", "setting": "[1]; liver and heart toxicity, vs vehicle", "value": "no significant changes"},
      {"measurement": "TNF-α-induced production of IL-8", "setting": "IL-8 production", "value": "inhibited"},
      {"measurement": "TAK1–TRAF6 interaction", "setting": "TAK1–TRAF6 interaction", "value": "does not disrupt"}
    ]}
  ]
}
